Active and inactive are the calls of the source. The rule behind the calls is not given here.
System: CCRIS mutagenicity, Ames/micronucleus/aberration tests
Assay: CCRIS mutagenicity studies
[1] = Test System: AMES SALMONELLA TYPHIMURIUM, Strain/Indicator: TA98, Metabolic Activation: NONE, Method: PREINCUBATION
[2] = Test System: AMES SALMONELLA TYPHIMURIUM, Strain/Indicator: TA100, Metabolic Activation: NONE, Method: PREINCUBATION
[3] = Test System: AMES SALMONELLA TYPHIMURIUM, Strain/Indicator: TA102, Metabolic Activation: NONE, Method: PREINCUBATION
[4] = Test System: AMES SALMONELLA TYPHIMURIUM, Strain/Indicator: TA100, Metabolic Activation: NONE, Method: STANDARD PLATE
[5] = Test System: AMES SALMONELLA TYPHIMURIUM, Strain/Indicator: TA98, Metabolic Activation: NONE, Method: STANDARD PLATE

SMILES: CCCCCCCCCCO
- mutagenic call [1]: inactive; negative
- mutagenic call (Test System: AMES SALMONELLA TYPHIMURIUM, Strain/Indicator: TA98, Metabolic Activation: RAT, LIVER, S-9, PHENOBARBITAL AND BETA-NAPHTHOFLAVONE, Method: PREINCUBATION): inactive; negative
- mutagenic call [2]: inactive; negative
- mutagenic call (Test System: AMES SALMONELLA TYPHIMURIUM, Strain/Indicator: TA100, Metabolic Activation: RAT, LIVER, S-9, PHENOBARBITAL AND BETA-NAPHTHOFLAVONE, Method: PREINCUBATION): inactive; negative
- mutagenic call [3]: inactive; negative
- mutagenic call (Test System: AMES SALMONELLA TYPHIMURIUM, Strain/Indicator: TA102, Metabolic Activation: RAT, LIVER, S-9, SODIUM PHENOBARBITAL AND 5,6-BENZOFLAVONE, Method: PREINCUBATION): inactive; negative
- mutagenic call (Test System: AMES SALMONELLA TYPHIMURIUM, Strain/Indicator: TA104, Metabolic Activation: NONE, Method: PREINCUBATION): inactive; negative
- mutagenic call (Test System: AMES SALMONELLA TYPHIMURIUM, Strain/Indicator: TA104, Metabolic Activation: RAT, LIVER, S-9, SODIUM PHENOBARBITAL AND 5,6-BENZOFLAVONE, Method: PREINCUBATION): inactive; negative
- mutagenic call (Test System: AMES SALMONELLA TYPHIMURIUM, Strain/Indicator: TA1535, Metabolic Activation: NONE, Method: PREINCUBATION): inactive; negative
- mutagenic call (Test System: AMES SALMONELLA TYPHIMURIUM, Strain/Indicator: TA1535, Metabolic Activation: RAT, LIVER, S-9, PHENOBARBITAL AND BETA-NAPHTHOFLAVONE, Method: PREINCUBATION): inactive; negative
- mutagenic call (Test System: AMES SALMONELLA TYPHIMURIUM, Strain/Indicator: TA1537, Metabolic Activation: NONE, Method: PREINCUBATION): inactive; negative
- mutagenic call (Test System: AMES SALMONELLA TYPHIMURIUM, Strain/Indicator: TA1537, Metabolic Activation: RAT, LIVER, S-9, PHENOBARBITAL AND BETA-NAPHTHOFLAVONE, Method: PREINCUBATION): inactive; negative
- mutagenic call (Test System: CHINESE HAMSTER V-79, Strain/Indicator: V-79 (HPRT)/6-THIOGUANINE, Metabolic Activation: NONE, Method: STANDARD PLATE): inactive; negative
- mutagenic call (Test System: CHINESE HAMSTER V-79, Strain/Indicator: V-79 (HPRT)/6-THIOGUANINE, Metabolic Activation: RAT LIVER S-9, Method: STANDARD PLATE): inactive; negative
- mutagenic call (Test System: E. COLI, Strain/Indicator: WP2UVRA/PKM101, Metabolic Activation: NONE, Method: PREINCUBATION): inactive; negative
- mutagenic call (Test System: E. COLI, Strain/Indicator: WP2UVRA/PKM101, Metabolic Activation: RAT, LIVER, S-9, PHENOBARBITAL AND BETA-NAPHTHOFLAVONE, Method: PREINCUBATION): inactive; negative
- mutagenic call (Test System: E. COLI, Strain/Indicator: WP2UVRA, Metabolic Activation: NONE, Method: PREINCUBATION): inactive; negative
- mutagenic call (Test System: E. COLI, Strain/Indicator: WP2UVRA, Metabolic Activation: RAT, LIVER, S-9, PHENOBARBITAL AND BETA-NAPHTHOFLAVONE, Method: PREINCUBATION): inactive; negative

SMILES: Clc1ncnc2nc[nH]c12
- mutagenic call [4]: active; positive

SMILES: Nc1ccc(Cl)cc1[N+](=O)[O-]
- mutagenic call (End Point: IN VITRO CHROMOSOMAL ABERRATIONS, Test System: CHINESE HAMSTER OVARY CELLS, Metabolic Activation: NONE): inactive; negative; precipitation occurred at 252 ug/ml
- mutagenic call (End Point: IN VITRO CHROMOSOMAL ABERRATIONS, Test System: CHINESE HAMSTER OVARY CELLS, Metabolic Activation: RAT, LIVER, S-9, AROCLOR 1254): active; positive; precipitation occurred at all doses
- mutagenic call (Test System: AMES SALMONELLA TYPHIMURIUM, Strain/Indicator: TA98(NR), Metabolic Activation: NONE, Method: STANDARD PLATE): inactive; negative
- mutagenic call [1]: inactive; negative
- mutagenic call (Test System: AMES SALMONELLA TYPHIMURIUM, Strain/Indicator: TA98, Metabolic Activation: RAT, LIVER, S-9, KANECHLOR 500, Method: PREINCUBATION): active; positive
- mutagenic call [2]: inactive; negative
- mutagenic call (Test System: AMES SALMONELLA TYPHIMURIUM, Strain/Indicator: TA1538, Metabolic Activation: NONE, Method: STANDARD PLATE): active; positive
- mutagenic call (Test System: AMES SALMONELLA TYPHIMURIUM, Strain/Indicator: TA1538, Metabolic Activation: RAT, LIVER, S-9, AROCLOR 1254, Method: STANDARD PLATE): active; positive
- mutagenic call (Test System: AMES SALMONELLA TYPHIMURIUM, Strain/Indicator: YG1020, Metabolic Activation: NONE, Method: STANDARD PLATE): active; positive
- mutagenic call (Test System: AMES SALMONELLA TYPHIMURIUM, Strain/Indicator: YG1021, Metabolic Activation: NONE, Method: STANDARD PLATE): active; positive
- mutagenic call (Test System: AMES SALMONELLA TYPHIMURIUM, Strain/Indicator: YG1024, Metabolic Activation: NONE, Method: STANDARD PLATE): active; positive

SMILES: ClC1C(Cl)C(Cl)C(Cl)C(Cl)C1Cl (centres undefined)
- mutagenic call (End Point: IN VITRO CHROMOSOMAL ABERRATIONS, Test System: HUMAN PERIPHERAL BLOOD LYMPHOCYTES, Metabolic Activation: NONE): active; positive (structural changes)
- mutagenic call (Test System: AMES SALMONELLA TYPHIMURIUM, Strain/Indicator: TA97, Metabolic Activation: NONE, Method: STANDARD PLATE): inactive; negative
- mutagenic call (Test System: AMES SALMONELLA TYPHIMURIUM, Strain/Indicator: TA97, Metabolic Activation: RAT, LIVER, S-9, AROCLOR 1254, Method: STANDARD PLATE): inactive; negative
- mutagenic call [5]: inactive; negative
- mutagenic call [4]: inactive; negative
- mutagenic call (Test System: AMES SALMONELLA TYPHIMURIUM, Strain/Indicator: TA100, Metabolic Activation: RAT, LIVER, S-9, AROCLOR 1254, Method: STANDARD PLATE): inactive; negative
- mutagenic call (Test System: AMES SALMONELLA TYPHIMURIUM, Strain/Indicator: TA102, Metabolic Activation: NONE, Method: STANDARD PLATE): inactive; negative
- mutagenic call (Test System: AMES SALMONELLA TYPHIMURIUM, Strain/Indicator: TA102, Metabolic Activation: RAT, LIVER, S-9, AROCLOR 1254, Method: STANDARD PLATE): inactive; negative
- mutagenic call (Test System: CHINESE HAMSTER OVARY, Strain/Indicator: CHO (HPRT)/6-THIOGUANINE, Metabolic Activation: NONE): inactive; negative
- mutagenic call (Test System: CHINESE HAMSTER OVARY, Strain/Indicator: CHO (HPRT)/6-THIOGUANINE, Metabolic Activation: S-9): inactive; negative
- mutagenic call (Test System: UDS HUMAN HEPATOCYTES, Strain/Indicator: THY INCORP, Metabolic Activation: NONE, Method: AUTORADIOGRAPHY): inactive; negative
- mutagenic call (Test System: UDS MOUSE HEPATOCYTES, Strain/Indicator: THY INCORP, Metabolic Activation: NONE, Method: AUTORADIOGRAPHY): inactive; negative
- mutagenic call (Test System: UDS RAT HEPATOCYTES, Strain/Indicator: THY INCORP, Metabolic Activation: NONE, Method: AUTORADIOGRAPHY): inactive; negative

SMILES: Cc1cc(C)c2nc3c(ccc4ccccc43)c(C)c2c1
- mutagenic call (Test System: AMES SALMONELLA TYPHIMURIUM, Strain/Indicator: TA97A, Metabolic Activation: NONE, Method: PREINCUBATION): inactive; negative
- mutagenic call [1]: active; positive
- mutagenic call [2]: active; positive
- mutagenic call [3]: inactive; negative

SMILES: Cc1cccc2c1ccc1c3ccccc3ccc21
- mutagenic call (Test System: AMES SALMONELLA TYPHIMURIUM, Strain/Indicator: TA100, Metabolic Activation: RAT, LIVER, MICROSOMES, 1-METHYLCHRYSENE, Method: STANDARD PLATE): inactive; negative
- mutagenic call (Test System: AMES SALMONELLA TYPHIMURIUM, Strain/Indicator: TA100, Metabolic Activation: RAT, LIVER, MICROSOMES, AROCLOR 1254, Method: STANDARD PLATE): inactive; negative
- mutagenic call (Test System: AMES SALMONELLA TYPHIMURIUM, Strain/Indicator: TA100, Metabolic Activation: RAT, LIVER, MICROSOMES, Method: STANDARD PLATE): inactive; negative

SMILES: O=[N+]([O-])c1ccc2ccc3c4c(cc5ccc1c2c53)C=C[C@H](O)[C@H]4O
- mutagenic call (Test System: AMES SALMONELLA TYPHIMURIUM, Strain/Indicator: TA98, Metabolic Activation: NONE): active; positive
- mutagenic call (Test System: AMES SALMONELLA TYPHIMURIUM, Strain/Indicator: TA98, Metabolic Activation: RAT, LIVER, S-9, AROCLOR 1254): active; positive
- mutagenic call (Test System: CHINESE HAMSTER OVARY, Strain/Indicator: CHO-K1-BH4 (HGPRT), Metabolic Activation: NONE): inactive; negative
- mutagenic call (Test System: CHINESE HAMSTER OVARY, Strain/Indicator: CHO-K1-BH4 (HGPRT), Metabolic Activation: RAT, LIVER, S-9, 3-METHYLCHOLANTHRENE): inactive; negative

SMILES: OCc1ccc(Br)cc1
- mutagenic call [4]: inactive; negative

SMILES: CCOP(=O)(OCC)Oc1cc(-c2ccccc2)on1
- mutagenic call [5]: inactive; negative
- mutagenic call (Test System: AMES SALMONELLA TYPHIMURIUM, Strain/Indicator: TA98, Metabolic Activation: RAT, LIVER, S-9, Method: STANDARD PLATE): inactive; negative
- mutagenic call [4]: inactive; negative
- mutagenic call (Test System: AMES SALMONELLA TYPHIMURIUM, Strain/Indicator: TA100, Metabolic Activation: RAT, LIVER, S-9, Method: STANDARD PLATE): inactive; negative
